Reference: patent publication US12662487B2, “Imidazo[1,2-b][1,2,4]triazol derivatives for use in therapy” (SANOFI, priority 2021, dated 2026)

What was measured:
Nur77 = target: T1, Nur77 (Homo sapiens, UniProt P22736); experiment: Activity on HEK - Nur77 modulation (Gal4-DBD luciferase reporter in stable HEK293 cells); type: cell-based; conditions: HEK293 cells expressing Gal4-DBD-hNur77 and Pfr-Luc; 24 hours with compound; luminescence
T1 construct: the Pfr-Luc (Gal4-responsive luciferase) reporter sits in the same cells
Description: Stable HEK293 cells expressing Gal4-DBD-FL-NOT, -hNur77, -hNOR1 and Pfr-Luc were obtained by limit dilution. HEK cells were grown in 75 cm^2 flask in DMEM high glucose 30-2002™ containing 10% calf serum, hygromycin at a content of 250 μg/ml, doxycycline at a content of 2 μg/ml (to induce expression) and 0.4 mg/ml of penicillin. After one week in culture, cells were harvested by trypsinization then plated onto 96 well dishes at the density of 20 000 cell per well in 75 μl of culture medium. After 24 hours compounds were added (25 μl per well) at different concentration for further 24 hours. The medium was removed and measurement was performed by adding 50 μl of Steadyglo (Promega, E2510) with 50 μl PBS per well for 15 minutes and plates were read using microplate luminescent reader.

Nurr1 = target: T2, Nurr1 (Mus musculus, UniProt Q06219); experiment: Activity on neuroblastoma cell lines - Nurr1 modulation (NBRE8x luciferase reporter in N2A cells); type: cell-based; conditions: N2A cells stably transfected with NBRE8x luciferase reporter; 24 hours with compound
T2 construct: N2A cells obtained from ATCC were stably transfected with NBRE8x (50-AAGGTCA-30) in tandem coupled with luciferase reporter gene; host or cells: N2A neuroblastoma cells
Description: N2A cells obtained from ATCC were stably transfected with NBRE8x (50-AAGGTCA-30) in tandem coupled with luciferase reporter gene. Each NBRE sequence was separated with 5 nucleotides. N2A were grown in 75 cm^2 flask in DMEM containing 10% calf serum, 4.5 g/L glucose and 0.4 mg/ml geneticin. After one week in culture cells were harvested by trypsinization (0.25%, 30 minutes) then plated onto 96 well dishes at the density of 60 000 cell per well in 75 μl of DMEM without phenol red containing 4.5 g/l glucose, 10% lipid free serum from Hyclone. After 24 hours compounds were added (25 μl/well) at different concentration for further 24 hours. Measurement is performed by adding 100 μl of Steadylite per well for 30 minutes and plates were read using microplate […] reader.

T2 sequence (Q06219 whole entry): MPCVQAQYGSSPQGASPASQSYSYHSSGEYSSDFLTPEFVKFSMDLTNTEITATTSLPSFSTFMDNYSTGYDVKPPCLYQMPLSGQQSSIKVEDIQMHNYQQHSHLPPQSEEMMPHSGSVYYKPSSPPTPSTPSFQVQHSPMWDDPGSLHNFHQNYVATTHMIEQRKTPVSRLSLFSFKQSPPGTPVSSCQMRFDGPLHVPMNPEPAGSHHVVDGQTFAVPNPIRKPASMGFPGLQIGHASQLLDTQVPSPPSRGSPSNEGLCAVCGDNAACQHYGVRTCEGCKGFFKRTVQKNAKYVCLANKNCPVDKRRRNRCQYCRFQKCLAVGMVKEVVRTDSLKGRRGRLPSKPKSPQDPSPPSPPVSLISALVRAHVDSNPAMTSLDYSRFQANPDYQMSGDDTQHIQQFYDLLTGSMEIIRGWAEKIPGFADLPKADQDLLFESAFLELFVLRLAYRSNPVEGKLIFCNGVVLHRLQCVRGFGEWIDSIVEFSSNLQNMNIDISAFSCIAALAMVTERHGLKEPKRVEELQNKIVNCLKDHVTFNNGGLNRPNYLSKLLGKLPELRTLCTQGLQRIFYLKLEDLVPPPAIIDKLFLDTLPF
T1 sequence (P22736 360-598 limits assumed): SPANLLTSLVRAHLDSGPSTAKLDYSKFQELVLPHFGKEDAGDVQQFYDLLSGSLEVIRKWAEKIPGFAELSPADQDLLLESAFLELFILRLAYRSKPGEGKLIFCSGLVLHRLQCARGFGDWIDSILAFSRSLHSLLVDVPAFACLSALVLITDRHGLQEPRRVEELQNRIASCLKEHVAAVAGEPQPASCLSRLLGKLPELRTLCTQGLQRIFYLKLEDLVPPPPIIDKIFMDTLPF

Row | IC50 (Nur77) | EC50 (Nurr1) | Structure (SMILES)
1 | 0.03 nM | 0.7 nM | Cn1c(-c2ccc3cc[nH]c3c2)cn2nc(-c3ccc(F)cc3)nc12 [compound (1), 6-[2-(4-fluorophenyl)-4-methyl-imidazo[1,2-b][1,2,4]triazol-5-yl]-1H-indole]
2 | – | 63 nM | Cn1c(-c2cccc(F)c2)cn2nc(-c3ccc(F)cc3)nc12 [compound (2), 5-(3-fluorophenyl)-2-(4-fluorophenyl)-4-methyl-4H-imidazo[1,2-b][1,2,4]triazole]
3 | 0.9 nM | 0.4 nM | Cn1c(-c2ccccc2)cn2nc(-c3cccc(CO)c3)nc12 [compound (3), [3-(4-methyl-5-phenyl-4H-imidazo[1,2-b][1,2,4]triazol-2-yl)phenyl]methanol]
